Assay in all cases: NCI-60 cell line screen, 48 h
Assay [1] relates to LOX IMVI.
Assay [2] concerns K562.
In assay [3] the test system is MDA-N.
In assay [4] the test system is CCRF-CEM.
Assay [5] relates to EKVX.
Assay [6] deals with HCT-15.
Assay [7] relates to U-251.
Assay [8] relates to SNB-19.
Assay [9] relates to SF-268.
The test system of assay [10] is MOLT-4.
Assay [11] has as its system BT-549.
Assay [12] concerns NCI/ADR-RES.
The test system of assay [13] is RPMI-8226.
Assay [14] relates to 786-0.
For assay [15], the system named is OVCAR-5.
Assay [16] concerns UACC-62.
The subject of assay [17] is MCF7.
The subject of assay [18] is SK-MEL-2.
Assay [19] deals with CAKI-1.

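Assay format: 96-well plates, 48-hour exposure. Abbreviation: GI50, concentration required for 50% inhibition of growth.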 Calls of active or inactive are those of the source. No stated cut-off is given here; in the data, active = GI50 up to about 1.1 µM and inactive = higher.

As to `CN1CC[C@@]2(c3cccc(O)c3)CC(=O)/C(=C/c3ccc(Cl)c(Cl)c3)[C@H]1C2`, the GI50 in [1] is 1.48 µM (inactive); in [2], 0.433 µM (active); in assay [3], 1.87 µM (inactive); in [4] it was 2.26 µM (inactive); in [5] it was 8.79 µM (inactive); in assay [6] it was 1.98 µM. The GI50 is 1.38 µM (inactive) in [7]; 3.26 µM (inactive) in assay [8]; 2.63 µM (inactive) in assay [9]; 3.15 µM (inactive) in [10]; 2.52 µM (inactive) in [11]; 2.38 µM (inactive) in assay [12]. The GI50 is 1.15 µM (inactive) in [13], 1.71 µM (inactive) in [14] and 4.35 µM (inactive) in [15].
For `NC(CC1=CCC=CC1)C(=O)O` (stereo not given), the GI50 is > 100 µM (inactive) in assay [16]; 91.8 µM (inactive) in assay [1]; 28.9 µM (inactive) in assay [2]; 59.2 µM (inactive) in assay [3]; 62.8 µM (inactive) in [4]; > 100 µM (inactive) in [5]. In addition, the GI50 in [6] is 57.9 µM; in [7], 64.4 µM (inactive); in assay [17] it was 47.4 µM (inactive); in assay [18] it was 53.7 µM (inactive); in [8] it was > 100 µM (inactive); in assay [9] it was > 100 µM (inactive). Besides, the GI50 is 62.2 µM (inactive) in assay [10]; > 100 µM (inactive) in assay [11]; > 100 µM (inactive) in assay [19]; 9.2 µM (inactive) in assay [13]; > 100 µM (inactive) in assay [14]; > 100 µM (inactive) in assay [15].
`O=c1c2sc3nc(NCCN4CCCCC4)ncc3c2ncn1-c1ccccc1`: the GI50 is 82.2 µM (inactive) in [16]; 17.3 µM (inactive) in assay [1]; 47.1 µM (inactive) in assay [2]; 80.5 µM (inactive) in assay [3]; 44.7 µM (inactive) in [4]; 40.4 µM in [6]. The GI50 in assay [7] was 44.4 µM (inactive); in [18], 34.2 µM (inactive); in [8], 67.9 µM (inactive); in assay [9], 60 µM (inactive); in [10] it was 67.8 µM (inactive); in assay [11], 85.9 µM (inactive). Also, the GI50 is 33 µM (inactive) in assay [19]; 62.5 µM (inactive) in [12]; 80.4 µM (inactive) in [13]; 80.7 µM (inactive) in [14]; > 100 µM (inactive) in assay [15].
For the compound `C=C(C)[C@H]1[C@@H]2OC(=O)[C@H]1[C@]1(O)C[C@H]3OC34C(=O)O[C@H]2[C@@]41C.CC(C)(O)[C@H]1[C@@H]2OC(=O)[C@H]1[C@]1(O)C[C@H]3OC34C(=O)O[C@H]2[C@@]41C` (stereo not given in full), the GI50 in [16], in assay [1], in assay [2], in [3], in assay [4] and in assay [5] was > 100 µM (inactive) each time. In addition, the GI50 is more than 100 µM in assay [6]; > 100 µM (inactive) in [7]; > 100 µM (inactive) in [17]; > 100 µM (inactive) in assay [18]; > 100 µM (inactive) in assay [8]; > 100 µM (inactive) in assay [9]. In addition, the GI50 in assay [10], in [11], in assay [19], in [13], in assay [14] and in assay [15] was > 100 µM (inactive) each time.
As for `c1ccc(CC2(c3cc4ccccc4[nH]3)OCCO2)nc1`, the GI50 was > 100 µM (inactive) in [16]; 34.7 µM (inactive) in assay [1]; 50.2 µM (inactive) in [2]; > 100 µM (inactive) in assay [3]; 83 µM (inactive) in [4]; 92.3 µM (inactive) in assay [5]. The GI50 in assay [6] was more than 100 µM; in [7] it was > 100 µM (inactive); in [18] it was > 100 µM (inactive); in [8], > 100 µM (inactive); in assay [9], > 100 µM (inactive); in assay [10], 61.1 µM (inactive). For the same compound, the GI50 in [11], in assay [19], in assay [12], in assay [13], in [14] and in [15] was > 100 µM (inactive) in each case.
As for `COc1cc(C2SCC(=O)N2c2ccc(-c3ccc(-n4c(-c5ccccc5)nc5ccccc5c4=O)cc3)cc2)cc(OC)c1OC` (stereo not given), the GI50 is 21.2 µM (inactive) in assay [16]; 2.21 µM (inactive) in assay [1]; 13.6 µM (inactive) in assay [2]; 10.6 µM (inactive) in assay [4]; 37.5 µM (inactive) in assay [5]; 28.6 µM in [6]. The GI50 in assay [7] is 22.2 µM (inactive); in assay [17] it was 26.2 µM (inactive); in [18] it was 22.2 µM (inactive); in [8] it was 26.5 µM (inactive); in assay [9] it was 63 µM (inactive); in [10], 21.1 µM (inactive). The GI50 in [11] is 17.3 µM (inactive); in [19] it was 19.1 µM (inactive); in assay [12], 29.2 µM (inactive); in assay [13], > 100 µM (inactive); in [14] it was 16.2 µM (inactive); in assay [15], > 100 µM (inactive).
For `CC(=O)OCC1OC(n2c(-c3cccs3)c3c(c(C#N)c2=S)-c2ccccc2CC3)C(OC(C)=O)C(OC(C)=O)C1OC(C)=O` (stereo not given), the GI50 is 4.17 µM (inactive) in [16]; 6.82 µM (inactive) in assay [1]; 4.37 µM (inactive) in assay [2]; 9.91 µM (inactive) in [4]; 5.53 µM (inactive) in assay [5]; 8.26 µM in [6]. For the same compound, the GI50 in assay [7] is 10.1 µM (inactive); in [17], 6.01 µM (inactive); in [18], 5.48 µM (inactive); in [8] it was 13 µM (inactive); in [9], 14.9 µM (inactive); in [10], 4.48 µM (inactive). The GI50 was 11.7 µM (inactive) in assay [11]; 9.59 µM (inactive) in assay [19]; 17.7 µM (inactive) in assay [12]; 3.28 µM (inactive) in assay [13]; 9.27 µM (inactive) in [14]; 26.5 µM (inactive) in assay [15].
`CCN(CC)CCNc1ccc2ncn3c4cc(OC)c(OC)c(O)c4c(=O)c1c23`: the GI50 in assay [16] was 16.6 µM (inactive); in assay [1], 1.24 µM (inactive); in assay [2] it was 5.89 µM (inactive); in [4] it was 0.897 µM (active); in [5], 16 µM (inactive); in assay [6], 9.91 µM. Also, the GI50 in assay [7] is 12.9 µM (inactive); in [17] it was 2.88 µM (inactive); in assay [18] it was 20.4 µM (inactive); in assay [8], 7.59 µM (inactive); in assay [9] it was 3.49 µM (inactive); in [10] it was 0.524 µM (active). In addition, the GI50 in assay [11] is 16.3 µM (inactive); in assay [19] it was 14 µM (inactive); in assay [12] it was 3.94 µM (inactive); in assay [13], 3.03 µM (inactive); in [14] it was 4.01 µM (inactive); in assay [15] it was 21.5 µM (inactive).

Values taken from ChEMBL document CHEMBL1201862, “PubChem BioAssay data set” (2004).
